From PubChem BioAssay (NCI)
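Where inhibition never reached the appropriate level, the endpoint shown equals the highest concentration tested. Otherwise, values were interpolated linearly from a five-concentration, 48-hour dose response in 96-well plates. GI50 = concentration required for 50% inhibition of growth. Definition used: TGI = concentration required for complete inhibition of growth.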

Legend:
Assay in all cases: DTP human tumour cell line panel, 48 h
CCRF-CEM leukemia = system: CCRF-CEM leukemia
U251 CNS = system: U251 CNS
NCI-H522 lung = system: NCI-H522 lung
NCI/ADR-RES ovarian = system: NCI/ADR-RES ovarian
NCI-H226 lung = system: NCI-H226 lung
SNB-75 CNS = system: SNB-75 CNS
SK-OV-3 ovarian = system: SK-OV-3 ovarian
MALME-3M melanoma = system: MALME-3M melanoma
TK-10 renal = system: TK-10 renal
RXF 393 renal = system: RXF 393 renal
HOP-92 NSCLC = system: HOP-92 NSCLC
SF-295 CNS = system: SF-295 CNS
IGROV1 ovarian = system: IGROV1 ovarian
DU-145 prostate = system: DU-145 prostate
LOX IMVI melanoma = system: LOX IMVI melanoma
HL-60(TB) leukemia = system: HL-60(TB) leukemia
SNB-19 CNS = system: SNB-19 CNS
MCF7 breast = system: MCF7 breast
M14 melanoma = system: M14 melanoma
SF-268 CNS = system: SF-268 CNS
BT-549 breast = system: BT-549 breast
OVCAR-8 ovarian = system: OVCAR-8 ovarian
MOLT-4 leukemia = system: MOLT-4 leukemia
HOP-62 NSCLC = system: HOP-62 NSCLC
HS 578T breast = system: HS 578T breast
MDA-MB-231 breast = system: MDA-MB-231 breast
EKVX NSCLC = system: EKVX NSCLC
SK-MEL-2 melanoma = system: SK-MEL-2 melanoma
SK-MEL-5 melanoma = system: SK-MEL-5 melanoma
RPMI-8226 leukemia = system: RPMI-8226 leukemia
KM12 colon = system: KM12 colon
OVCAR-3 ovarian = system: OVCAR-3 ovarian
UACC-62 melanoma = system: UACC-62 melanoma
786-0 renal = system: 786-0 renal
NCI-H23 lung = system: NCI-H23 lung
UO-31 renal = system: UO-31 renal
K-562 leukemia = system: K-562 leukemia
A498 renal = system: A498 renal
SF-539 CNS = system: SF-539 CNS
UACC-257 melanoma = system: UACC-257 melanoma
HCT-116 colon = system: HCT-116 colon
NCI-H460 lung = system: NCI-H460 lung
CAKI-1 renal = system: CAKI-1 renal
HCT-15 colon = system: HCT-15 colon
HT29 colon = system: HT29 colon
SN12C renal = system: SN12C renal
MDA-MB-435 = system: MDA-MB-435
HCC-2998 colon = system: HCC-2998 colon
SW-620 colon = system: SW-620 colon
OVCAR-5 ovarian = system: OVCAR-5 ovarian
OVCAR-4 ovarian = system: OVCAR-4 ovarian
A549 NSCLC = system: A549 NSCLC
ACHN renal = system: ACHN renal
PC-3 prostate = system: PC-3 prostate
COLO 205 colon = system: COLO 205 colon
SK-MEL-28 melanoma = system: SK-MEL-28 melanoma

With `COc1cc(NC(=O)CSc2nc3ccccc3c(=O)n2CCc2ccccc2)cc(OC)c1OC` the GI50 (CCRF-CEM leukemia) was greater than 100 µM, the TGI (CCRF-CEM leukemia) was greater than 100 µM and the GI50 (U251 CNS) was 2.1 µM. It also gave a TGI (U251 CNS) of 5.2 µM, a GI50 (NCI-H522 lung) of 1.65 µM and a TGI (NCI-H522 lung) of 4.2 µM. It also gave a GI50 (NCI/ADR-RES ovarian) of 3.77 µM, a TGI (NCI/ADR-RES ovarian) greater than 100 µM and a GI50 (NCI-H226 lung) of 2.14 µM. For the same compound, the TGI (NCI-H226 lung) was 7.16 µM, the GI50 (SNB-75 CNS) was 2.23 µM and the TGI (SNB-75 CNS) was 11 µM. For the same compound, the GI50 (SK-OV-3 ovarian) was 1.93 µM, the TGI (SK-OV-3 ovarian) was 3.69 µM and the GI50 (MALME-3M melanoma) was 2.16 µM. It also gave a TGI (MALME-3M melanoma) of 5.9 µM, a GI50 (TK-10 renal) of 1.81 µM and a TGI (TK-10 renal) of 3.81 µM. The GI50 (RXF 393 renal) was 1.57 µM, the TGI (RXF 393 renal) was 3.69 µM and the GI50 (HOP-92 NSCLC) was 0.587 µM. The TGI (HOP-92 NSCLC) was 3.44 µM, the GI50 (SF-295 CNS) was 3.21 µM and the TGI (SF-295 CNS) was 15.3 µM. For the same compound, the GI50 (IGROV1 ovarian) was 1.93 µM, the TGI (IGROV1 ovarian) was 4.46 µM and the GI50 (DU-145 prostate) was 4.98 µM. It also gave a TGI (DU-145 prostate) greater than 100 µM, a GI50 (LOX IMVI melanoma) of 4.11 µM and a TGI (LOX IMVI melanoma) greater than 100 µM. The GI50 (HL-60(TB) leukemia) was greater than 100 µM, the TGI (HL-60(TB) leukemia) was greater than 100 µM and the GI50 (SNB-19 CNS) was 3.49 µM. For the same compound, the TGI (SNB-19 CNS) was 17.5 µM, the GI50 (MCF7 breast) was 4.44 µM and the TGI (MCF7 breast) was greater than 100 µM. The GI50 (M14 melanoma) was 5.49 µM, the TGI (M14 melanoma) was greater than 100 µM and the GI50 (SF-268 CNS) was 3.55 µM. It also gave a TGI (SF-268 CNS) of 43.9 µM, a GI50 (BT-549 breast) of 3.22 µM and a TGI (BT-549 breast) of 9.47 µM. The GI50 (OVCAR-8 ovarian) was 2.7 µM, the TGI (OVCAR-8 ovarian) was greater than 100 µM and the GI50 (MOLT-4 leukemia) was greater than 100 µM. It also gave a TGI (MOLT-4 leukemia) greater than 100 µM, a GI50 (HOP-62 NSCLC) of 2.12 µM and a TGI (HOP-62 NSCLC) of 4.88 µM. It also gave a GI50 (HS 578T breast) of 3.52 µM, a TGI (HS 578T breast) greater than 100 µM and a GI50 (MDA-MB-231 breast) of 1.47 µM. For the same compound, the TGI (MDA-MB-231 breast) was 3.71 µM, the GI50 (EKVX NSCLC) was 4.8 µM and the TGI (EKVX NSCLC) was greater than 100 µM. The GI50 (SK-MEL-2 melanoma) was 2.32 µM and the TGI (SK-MEL-2 melanoma) was 6.94 µM.

`CC(=O)O[C@H]1CC[C@@]2(C)C(=C[C@H](c3ccc(O)cc3)[C@H]3[C@@H]4CC[C@H](OC(C)=O)[C@@]4(C)CC[C@@H]32)C1` was tested, and the TGI (SK-MEL-5 melanoma) was 23.8 µM, the TGI (CCRF-CEM leukemia) was 56.1 µM and the TGI (RPMI-8226 leukemia) was 45.8 µM. The TGI (U251 CNS) was 48 µM, the TGI (NCI/ADR-RES ovarian) was 31.9 µM and the TGI (KM12 colon) was 31 µM. The TGI (NCI-H226 lung) was 40.5 µM, the TGI (SNB-75 CNS) was 51.7 µM and the TGI (SK-OV-3 ovarian) was greater than 100 µM. For the same compound, the TGI (MALME-3M melanoma) was 34.2 µM, the TGI (OVCAR-3 ovarian) was 38.8 µM and the TGI (TK-10 renal) was greater than 100 µM. It also gave a TGI (RXF 393 renal) of 51.1 µM, a TGI (UACC-62 melanoma) of 23 µM and a TGI (786-0 renal) of 38.3 µM. The TGI (NCI-H23 lung) was 53.7 µM, the TGI (UO-31 renal) was 76.4 µM and the TGI (K-562 leukemia) was 59.4 µM. For the same compound, the TGI (A498 renal) was 57.8 µM, the TGI (SF-539 CNS) was 43.9 µM and the TGI (UACC-257 melanoma) was 51.6 µM. The TGI (HCT-116 colon) was 29.7 µM, the TGI (HOP-92 NSCLC) was 81.5 µM and the TGI (NCI-H460 lung) was 40.6 µM. The TGI (SF-295 CNS) was 77.9 µM, the TGI (DU-145 prostate) was 48.8 µM and the TGI (LOX IMVI melanoma) was 27.1 µM. It also gave a TGI (CAKI-1 renal) of 53.4 µM, a TGI (HCT-15 colon) of 24.8 µM and a TGI (HT29 colon) of 26.5 µM. For the same compound, the TGI (SN12C renal) was 69 µM, the TGI (MDA-MB-435) was 62.6 µM and the TGI (HL-60(TB) leukemia) was 58 µM. It also gave a TGI (SNB-19 CNS) of 47.7 µM, a TGI (HCC-2998 colon) of 36.2 µM and a TGI (MCF7 breast) of 57.4 µM. It also gave a TGI (M14 melanoma) of 41.3 µM, a TGI (SF-268 CNS) of 39.3 µM and a TGI (SW-620 colon) of 46.2 µM. For the same compound, the TGI (OVCAR-5 ovarian) was 97.9 µM, the TGI (BT-549 breast) was 29.4 µM and the TGI (OVCAR-8 ovarian) was 33.8 µM. For the same compound, the TGI (OVCAR-4 ovarian) was 41 µM, the TGI (MOLT-4 leukemia) was 45.3 µM and the TGI (A549 NSCLC) was 40.5 µM. The TGI (HOP-62 NSCLC) was 66.9 µM, the TGI (MDA-MB-231 breast) was 35.8 µM and the TGI (ACHN renal) was 80.6 µM. For the same compound, the TGI (EKVX NSCLC) was 37.4 µM, the TGI (PC-3 prostate) was 46.2 µM and the TGI (SK-MEL-2 melanoma) was 48.4 µM. It also gave a TGI (COLO 205 colon) of 35.2 µM.

In the case of `COc1cc2c(cc1OC)-c1c(oc3cc(OC4OC(CO)C(O)C(O)C4O)c(OC)cc3c1=O)C(O)O2` (configuration not stated), the TGI (SK-MEL-5 melanoma) is reported as greater than 100 µM, the TGI (CCRF-CEM leukemia) is reported as greater than 100 µM and the TGI (RPMI-8226 leukemia) is reported as greater than 100 µM. It also gave a TGI (U251 CNS) greater than 100 µM, a TGI (NCI-H522 lung) greater than 100 µM and a TGI (NCI/ADR-RES ovarian) greater than 100 µM. It also gave a TGI (KM12 colon) greater than 100 µM, a TGI (NCI-H226 lung) greater than 100 µM and a TGI (SNB-75 CNS) greater than 100 µM. It also gave a TGI (SK-OV-3 ovarian) greater than 100 µM, a TGI (MALME-3M melanoma) greater than 100 µM and a TGI (OVCAR-3 ovarian) greater than 100 µM. The TGI (TK-10 renal) was greater than 100 µM, the TGI (RXF 393 renal) was greater than 100 µM and the TGI (UACC-62 melanoma) was greater than 100 µM. For the same compound, the TGI (786-0 renal) was greater than 100 µM, the TGI (NCI-H23 lung) was greater than 100 µM and the TGI (UO-31 renal) was greater than 100 µM. It also gave a TGI (K-562 leukemia) greater than 100 µM, a TGI (A498 renal) greater than 100 µM and a TGI (SF-539 CNS) greater than 100 µM. It also gave a TGI (UACC-257 melanoma) greater than 100 µM, a TGI (HCT-116 colon) greater than 100 µM and a TGI (SK-MEL-28 melanoma) greater than 100 µM. For the same compound, the TGI (HOP-92 NSCLC) was greater than 100 µM, the TGI (NCI-H460 lung) was greater than 100 µM and the TGI (SF-295 CNS) was greater than 100 µM. For the same compound, the TGI (IGROV1 ovarian) was greater than 100 µM, the TGI (DU-145 prostate) was greater than 100 µM and the TGI (LOX IMVI melanoma) was greater than 100 µM. The TGI (CAKI-1 renal) was greater than 100 µM, the TGI (HCT-15 colon) was greater than 100 µM and the TGI (HT29 colon) was greater than 100 µM. For the same compound, the TGI (SN12C renal) was greater than 100 µM, the TGI (MDA-MB-435) was greater than 100 µM and the TGI (HL-60(TB) leukemia) was greater than 100 µM. For the same compound, the TGI (SNB-19 CNS) was greater than 100 µM, the TGI (HCC-2998 colon) was greater than 100 µM and the TGI (M14 melanoma) was greater than 100 µM. The TGI (SF-268 CNS) was greater than 100 µM, the TGI (SW-620 colon) was greater than 100 µM and the TGI (OVCAR-5 ovarian) was greater than 100 µM. For the same compound, the TGI (BT-549 breast) was greater than 100 µM, the TGI (OVCAR-8 ovarian) was greater than 100 µM and the TGI (OVCAR-4 ovarian) was greater than 100 µM. It also gave a TGI (A549 NSCLC) greater than 100 µM, a TGI (HOP-62 NSCLC) greater than 100 µM and a TGI (HS 578T breast) greater than 100 µM. The TGI (MDA-MB-231 breast) was greater than 100 µM, the TGI (ACHN renal) was greater than 100 µM and the TGI (EKVX NSCLC) was greater than 100 µM. For the same compound, the TGI (PC-3 prostate) was greater than 100 µM, the TGI (SK-MEL-2 melanoma) was greater than 100 µM and the TGI (COLO 205 colon) was greater than 100 µM.
